Columns and labels:
Assay type in all cases: cell-based, Bupleurum kaoi
[1] = test system: B. kaoi adventitious roots; test: Effect of MeJA on saikosaponin production in adventitious roots (HPLC); settings: for Increase of total saikosaponins: 2 weeks after treatment, P<0.05; for Saikosaponin: measured 14 days after MeJA treatment, mean ± S.E., n=3
Description: Adventitious root cultures were induced from the roots of germ-free seedlings of B. kaoi and were subcultured every 6 weeks by adding 0.2 g roots to a 125 ml flask containing 50 ml of B5 liquid medium supplemented with 2 mg 1^−1 NAA. Cultures were shaken using a rotary shaker at 100 rpm at 25° C. in the dark. To quantify the effect of MeJA on saikosaponin level, adventitious roots were treated with 500 and 1000 μM MeJA 2 weeks after subculture. Total saikosaponin was measured 2 weeks after MeJA treatment. To monitor expression of MeJA-responsive genes, the nutrient medium was refreshed 4 weeks after subculture and MeJA (500 μM) was applied 2 weeks after refreshment. Roots were harvested at 13 time points (5 min; 1, 2, 8, 24 hours; 2, 4, 6, 8 days; 2, 3, 4, 5 weeks) after the addition of the MeJA. The saikosaponins level was measured according to Li et al. (Li X. Q. et al., Biol. Pharm. Bull. 28 (2005) 1736-1742) with some modifications. Freeze-dried adventitious roots were ground into a fine powder and extracted with 70% methanol at a ratio of 10:1 (v/w) at 25° C. with gentle shaking for 24 h. After centrifugation at 10,000×g for 10 min, the supernatant was filtered through a 0.45 μm filter. The amount of total saikosaponins (saikosaponin-a, saikosaponin-c, and saikosaponin-d) in each extract was quantified using a high performance liquid chromatograph (HPLC) (Waters 600 controller autoinjector) with a C18 Inertsil 5 ODS-2 column (4.6 mm×250 mm) and a mobile phase of 45% acetonitrile/55% H2O. The flow rate was 1 ml min^−1, the injection volume was 20 μl, and the eluent was monitored at 210 nm using a Waters 996 photodiode array detector.

[2] = test system: B. kaoi adventitious roots; test: Fresh weight and appearance of adventitious roots after MeJA
Description: FIG. 1 Effect of MeJA on fresh weight and appearance of B. kaoi adventitious roots. (A) Four weeks after subculture, the nutrient medium of B. kaoi adventitious roots was refreshed. MeJA (500 μM) was applied 2 weeks after refreshment. The fresh weights of adventitious roots were measured at 13 time points after MeJA treatment as indicated. (B) Adventitious roots treated with MeJA began to show dark brownish pigmentation after 2 weeks. Each panel is a representative of the adventitious roots at the indicated time points. The left and right flasks for each sub-panel indicate the control and MeJA treated adventitious roots, respectively. (C) H2O2 level and (D) MDA level were measured at the indicated time. Vertical bars indicate S.E. of the mean for n=3.
Adventitious root cultures were induced from the roots of germ-free seedlings of B. kaoi and were subcultured every 6 weeks by adding 0.2 g roots to a 125 ml flask containing 50 ml of B5 liquid medium supplemented with 2 mg 1^−1 NAA. Cultures were shaken using a rotary shaker at 100 rpm at 25° C. in the dark. To quantify the effect of MeJA on saikosaponin level, adventitious roots were treated with 500 and 1000 μM MeJA 2 weeks after subculture. Total saikosaponin was measured 2 weeks after MeJA treatment. […]

[3] = test system: B. kaoi adventitious roots; test: Measurement of malondialdehyde (MDA) in adventitious roots
Description: To test whether MeJA caused oxidative stress, the H2O2 level was measured as described below. H2O2 was extracted by homogenizing 0.3 to 0.5 g of adventitious roots with 3 ml phosphate buffer (50 mM, pH6.8) and centrifuged at 6000×g for 25 min. A 2 ml extract was mixed with 1 ml 0.1% titanium sulfate in 20% H2SO4 (v/v), and centrifuged at 6000×g for 15 min. The optical density of the supernatant was measured at 410 nm using an equal volume of phosphate buffer as a blank. […] The MDA level was colorimetrically measured as described below. MDA was extracted by homogenizing 0.3 to 0.5 g adventitious roots with 2 ml 5% trichloroacetic acid, and centrifuged at 10,000×g for 5 min at 20° C. A mixture of 1 ml supernatant with 4 ml 0.5% thiobarbituric acid in 20% trichloroacetic acid was heated in a 95° C. water bath for 30 min and centrifuged for 10 min at 2000×g to remove haziness. Optical density of the supernatant was measured at 532 nm and 600 nm using 1 ml 5% trichloroacetic acid to replace supernatant as a blank.

CC/C=C\CC1C(=O)CCC1CC(=O)OC (centres unmarked) [MeJA, Methyl jasmonate]
Increase of total saikosaponins ([1]; 500 μM MeJA): 38 fold | Increase of total saikosaponins ([1]; 1000 μM MeJA): 21 fold | Saikosaponin ([1]; MeJA 500 μM): 63.60 ± 20.46 μg g^−1 of dry wt | Saikosaponin ([1]; MeJA 1000 μM): 39.73 ± 13.25 μg g^−1 of dry wt | Appearance of roots (pigmentation) ([2]; 500 μM MeJA, 2 weeks later, compared to control): marked pigmentation | Growth of adventitious roots (fresh weight) ([2]; 8 days after 500 μM MeJA treatment): retarded | Increase in the MDA level ([3]; 500 μM MeJA, at 2 days): 1.4 fold | Accumulation of MDA ([3]; all treatments during 5 weeks): < 47 nmol/g
